Experiment: in vitro
Settings: human, hela cells, % viability

Point of comparison: `O=C(NCC1CC1)c1ccc(N2CCN(C(=O)c3ccccc3C(F)(F)F)CC2)nn1` [CBK153220], viability at 28.5 h, 10 µM 111%. Against it:
- Cc1cc(COC(=O)c2nn(-c3ccc(F)cc3)c3c2CCCC3)on1 [CBK295305] — lower, 105%
- Cc1csc(C(Cc2ccsc2)NC(=O)C2CC2C)n1 (centres unmarked) [CBK282226] — lower, 86.7%
- COc1ccc(C(NC(=O)C2CCN(C(=O)NC(C)(C)C)CC2)c2ccccn2)cc1 (centres unmarked) [CBK060298] — higher, 112%
- Cc1c(C#N)c(=O)oc2ccccc12 [CBK007705] — lower, 95.2%
- Cc1oc(-c2cccc(Cl)c2)cc1C(=O)O [CBK045856] — lower, 78%
- N#Cc1ccc(C(=O)N2CCN3C(=O)[C@H](Cc4ccc(F)cc4)NC(=O)[C@H]3C2)cc1 [CBK289602] — lower, 106%
- COc1ccc(CN2CCC(Oc3nccnc3OCCN3CCOCC3)CC2)cc1 [CBK082922T] — lower, 90.8%
- C(=C\c1ccccc1)/CNCCCN1CCOCC1 [CBK278195C] — lower, 105%
- Cc1nc2cc(C(=O)N3CCc4[nH]c5ccccc5c4C3)ccc2n1C [CBK281842] — lower, 60.6%
- COc1cccc(NC(=O)N2CCC3(CC2)NC(=O)c2cc(-c4ccoc4)ccc2O3)c1 [CBK115855] — lower, 102%
- CCN(CC)CCNC(=O)c1c(O)c2ccccc2n(Cc2ccccc2)c1=O [CBK291199] — higher, 113%
- COc1cc(C)c(Nc2cc(-c3ccc(C(N)=O)cc3)ncn2)cc1OC [CBK090784] — lower, 98.9%
- CC(=O)N[C@H]1CC[C@]2(C)CCC([C@H](C)C(=O)N(C)Cc3ccccc3)[C@H](O)[C@H]2[C@@H]1C (some centres unmarked) [CBK289435] — lower, 110%
- Clc1ccc(CNc2ncc(-c3ccc(N4CCOCC4)cc3)n3ccnc23)cc1Cl [CBK091229] — lower, 84.3%
- CN(C)CC1COc2ccccc2CN1C(=O)Cc1ccccc1F (centres unmarked) [CBK285080] — lower, 89.5%
- C#CCOc1ccc(/C=C2/SC(=S)N(CCC(=O)O)C2=O)cc1 [CBK265667] — lower, 94.1%
- CC1=CC(C)C(C(=O)O)C(C(=O)Nc2ccccc2)C1 (centres unmarked) [CBK286851] — lower, 90.4%
- O=C(/C=C/c1ccccc1)Oc1cccc(NC(=O)C2CC(=O)N(c3ccccc3)C2)c1 (centres unmarked) [CBK264330] — lower, 109%
- Cc1ccc(CNS(=O)(=O)N(C)C)cc1 [CBK091778] — lower, 80.9%
- CC1CCCN(C(=O)CCn2c(-c3ccncc3)cc3cccnc32)C1 (centres unmarked) [CBK282152] — lower, 108%
- Nn1cnn2c(SCC(=O)Nc3ccc(Cl)cc3)nnc12 [CBK025688] — lower, 99%
- Sc1nnc2sc3ccccc3n12 [CBK018156] — lower, 103%
- O=C(c1ccc(OC(F)(F)F)cc1)N1CCC2(CCN(Cc3ccccc3)CC2)C1 [CBK136746] — lower, 101%
- O=C(Nc1ccc2[nH]ccc2c1)c1c(F)cccc1F [CBK144711] — lower, 95.9%
- CS(=O)(=O)Nc1cc2ccccc2c(-c2ccc(OCc3ccccc3)c(F)c2)n1 [CBK073785] — lower, 92.7%
- Brc1ccc2nc(NCc3ccccn3)nc(-c3ccccc3)c2c1 [CBK266736] — lower, 89.3%
- O=C(c1cc(Cl)c[nH]1)N1CCN(Cc2cc(=O)n3ccsc3n2)CC1 [CBK306313] — lower, 92.9%
- Nc1nn2c(c1Cc1c(Cl)cccc1Cl)OCC2 [CBK088759] — lower, 91.7%
- COc1cc(-c2nccnc2NCCc2c[nH]c3ccccc23)cc(OC)c1OC [CBK038015] — lower, 102%
- COC(=O)CN1C(CN2CCOCC2)=Nc2ccc(Br)cc2C1c1ccccc1 (centres unmarked) [CBK262981] — lower, 89.8%
- Nc1nc(N)c2cccc(F)c2n1 [CBK025945] — lower, 91.4%
- COc1cccc(/C=C\c2[nH]c(=O)[nH]c(=O)c2[N+](=O)[O-])c1OCC(=O)O [CBK266822] — lower, 104%
- Cc1ccc(Cn2nc(C)c(C(=O)OCc3cc(=O)n4ccccc4n3)c2Cl)cc1 [CBK297550] — lower, 85.8%
- Cc1cc(C(=O)N2CCC(N3C(=O)OCC3(C)C)CC2)n(C(C)(C)C)n1 [CBK044233] — lower, 94.4%

From paper PMC12040169 (PLOS Biology, 2025)
